{"source": "patent US10052340B2", "about": "(XIAMEN UNIVERSITY, priority 2012, dated 2018)", "tested_on": "wild-type C57BL/6J mice", "test": "Mouse trial, wild-type mice fed with high-fat diet", "conditions": "1.3 mg/kg i.p. daily, 14 days", "procedure": "Wild-type C57BL/6J mice of 9-10 weeks old, and FXR gene deletion homozygous mice (FXR^−/−) and diabetes and obesity mouse model mice (KK-Ay) with the same background are used, fed with high-fat diet (Research Diets, D12492), with free access to water, in SPF grade animal room in experimental animal center, Xiamen University. […] Intraperitoneal injection is performed one time at 9 o'clock every morning, continued for 14 days, and the mice are measured for body weight and the food intake every two days. At the end of 14 days, the mice are provided with free access to water, and after being hungry for 6 h, the mouse body weights are measured, and the percentage of the final body weight relative to the initial body weight before the treatment of the injection trial indicates the change of mouse body weight. Then blood is sampled from the eye balls, and sera are obtained by separation. The components in serum are detected by the following kits respectively: sugar-oxidase method (Beijing Applygen); insulin (Crystal Chem. Inc., USA); total cholesterol and cholesterol in high and low density lipoprotein (Bioassay Systems, USA); triglyceride (Beijing Applygen and WAKO Chemicals Inc., Japan); free fatty acids (Bioassay Systems, USA); and aspartate aminotransferase and alanine aminotransferase (Biosino Bio-technology and Science Inc., Beijing, China). Mouse liver is taken, a part of which is fixed with paraformaldehyde, and embedded with paraffin, sectioned, and stained with hematoxylin and eosin, and a part of which is cryopreserved with liquid nitrogen for use in extracting RNA for measuring gene expression with fluorescence quantitative PCR.", "data": [{"smiles": "CC[C@H](C)[C@H]1O[C@]2(CC[C@@H]1C)C[C@@H]1C[C@@H](C/C=C(\\C)C(O[C@H]3C[C@H](OC)C(O[C@H]4C[C@H](OC)[C@@H](O)[C@H](C)O4)[C@H](C)O3)[C@@H](C)/C=C/C=C3\\CO[C@@H]4[C@H](O)C(C)=CC(C(=O)O1)[C@]34O)O2", "note": "(stereo partly drawn) [ivermectin]", "values": [{"measurement": "activity of serum alanine aminotransferase", "setting": "FIG. 11", "value": "does not affect the transaminase activity"}, {"measurement": "activity of serum aspartate aminotransferase", "setting": "FIG. 11", "value": "does not affect the transaminase activity"}, {"measurement": "liver injury, liver section stained with hematoxylin and eosin", "setting": "FIG. 12", "value": "produces no injury to liver cells"}, {"measurement": "cholesterol level in high density lipoprotein", "setting": "high-fat diet", "value": "significantly downregulated"}, {"measurement": "cholesterol levels in low density and very low density lipoprotein", "setting": "high-fat diet", "value": "downregulated"}, {"measurement": "serum cholesterol level", "setting": "high-fat diet", "value": "significantly decreases"}, {"measurement": "serum glucose level", "setting": "high-fat diet", "value": "significantly decreases"}, {"measurement": "serum insulin level", "setting": "high-fat diet", "value": "significantly decreases"}, {"measurement": "serum triglyceride (Tg) level", "setting": "high-fat diet", "value": "significantly decrease"}]}]}
